# Measurements published in patent US8299111B2, “Compounds which modulate the CB2 receptor” (Boehringer Ingelheim International GmbH, priority 2006, dated 2012).
# Target: T1, human CB2R (Homo sapiens, UniProt P34972)
# T1 construct: host or cells: CHO cells
# Assay: CB2R mediated modulation of cAMP synthesis
# Format: cell-based
# Conditions: found through the use of the above described assays (binding and cAMP); CHO cells expressing human CB2R, forskolin-stimulated cAMP
# Method in brief: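 EC50 values reflect inhibition of cAMP made in response to 10 uM forskolin (with 1 mM IBMX, 0.25% BSA) over 30 min at 37 °C in human CB2R-expressing CHO cells. The window runs from forskolin alone to 1 uM CP55940; curves fitted with a four-parameter logistic model.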
# T1 sequence (P34972 whole entry): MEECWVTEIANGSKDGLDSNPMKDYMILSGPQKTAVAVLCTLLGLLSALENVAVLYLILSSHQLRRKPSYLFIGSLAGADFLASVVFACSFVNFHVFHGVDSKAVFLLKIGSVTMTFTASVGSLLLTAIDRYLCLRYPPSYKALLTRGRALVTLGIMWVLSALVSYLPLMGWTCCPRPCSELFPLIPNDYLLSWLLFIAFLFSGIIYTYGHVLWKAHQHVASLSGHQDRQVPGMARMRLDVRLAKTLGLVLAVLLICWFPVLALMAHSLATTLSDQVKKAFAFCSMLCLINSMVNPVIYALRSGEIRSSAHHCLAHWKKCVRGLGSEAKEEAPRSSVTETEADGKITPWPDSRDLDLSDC
row,Compound,agonistic activity
1,CCC(C)c1ccc(NC(=O)C(C)(C)S(=O)(=O)c2ccc(Cl)cc2)nc1 (centres unmarked) [N-(5-sec-Butyl-pyridin-2-yl)-2-(4-chloro-benzenesulfonyl)-2-methyl-propionamide],agonistic activity
2,CC(C)(C(=O)Nc1cccnc1)S(=O)(=O)c1ccc(C(F)(F)F)cc1 [2-Methyl-N-pyridin-3-yl-2-(4-trifluoromethyl-benzenesulfonyl)-propionamide],agonistic activity
3,O=C(Nc1cccc(C(F)(F)F)n1)C1(S(=O)(=O)c2ccc(C(F)(F)F)cc2)CC1 [1-(4-Trifluoromethyl-benzenesulfonyl)-cyclopropanecarboxylic acid (6-trifluoromethyl-pyridin-2-yl)-amide],agonistic activity
4,"CC(C)(C(=O)Nc1nnc(-c2ccccc2)s1)S(=O)(=O)c1ccc(Cl)cc1 [2-(4-Chloro-benzenesulfonyl)-2-methyl-N-(5-phenyl-[1,3,4]thiadiazol-2-yl)-propionamide]",agonistic activity
5,COc1ccc(S(=O)(=O)C(C)(C)C(=O)Nc2cc(C(C)(C)C)no2)cc1 [N-(3-tert-Butyl-isoxazol-5-yl)-2-(4-methoxy-benzenesulfonyl)-2-methyl-propionamide],agonistic activity
6,CC(C)(C)c1csc(NC(=O)C(C)(C)S(=O)(=O)c2ccc(Cl)nc2)n1 [N-(4-tert-Butyl-thiazol-2-yl)-2-(6-chloro-pyridine-3-sulfonyl)-2-methyl-propionamide],agonistic activity
7,CC(C)(C)c1cc(NC(=O)C(C)(C)S(=O)(=O)c2ccc(Cl)cc2F)on1 [N-(3-tert-Butyl-isoxazol-5-yl)-2-(4-chloro-2-fluoro-benzenesulfonyl)-2-methyl-propionamide],agonistic activity
8,CC(C)(C(=O)Nc1cc(C(F)(F)F)ccn1)S(=O)(=O)c1ccc(Cl)cc1F [2-(4-Chloro-2-fluoro-benzenesulfonyl)-2-methyl-N-(4-trifluoromethyl-pyridin-2-yl)-propionamide],agonistic activity
9,Cc1nc(NC(=O)C(C)(C)S(=O)(=O)c2ccccc2)sc1C(C)(C)C [2-Benzenesulfonyl-N-(5-tert-butyl-4-methyl-thiazol-2-yl)-2-methyl-propionamide],agonistic activity
10,Cc1nc(NC(=O)C(C)(C)S(=O)(=O)c2ccc(C(F)(F)F)cc2)sc1C(C)(C)C [N-(5-tert-Butyl-4-methyl-thiazol-2-yl)-2-methyl-2-(4-trifluoromethyl-benzenesulfonyl)-propionamide],agonistic activity
11,CC(C)(C(=O)Nc1ccc2ccccc2n1)S(=O)(=O)c1ccc(Cl)cc1 [2-(4-Chloro-benzenesulfonyl)-2-methyl-N-quinolin-2-yl-propionamide],agonistic activity
12,CCc1ccnc(NC(=O)C(C)(C)S(=O)(=O)c2ccc(C(F)(F)F)nc2)c1 [N-(4-ethylpyridin-2-yl)-2-methyl-2-{[6-(trifluoromethyl)pyridin-3-yl]sulfonyl}propanamide],agonistic activity
13,"Cc1sc(NC(=O)C(C)(C)S(=O)(=O)c2ccc(Cl)cc2F)nc1-c1ccccc1 [2-[(4-chloro-2-fluorophenyl)sulfonyl]-2-methyl-N-(5-methyl-4-phenyl-1,3-thiazol-2-yl)propanamide]",agonistic activity
14,Cc1ccccc1S(=O)(=O)C(C)(C)C(=O)Nc1nc(C(C)(C)C)cs1 [N-(4-tert-Butyl-thiazol-2-yl)-2-methyl-2-(toluene-2-sulfonyl)-propionamide],agonistic activity
15,CC(C)(C)c1cc(NC(=O)C2(S(=O)(=O)c3ccc(C(F)(F)F)cc3)CCC2)no1 [1-(4-Trifluoromethyl-benzenesulfonyl)-cyclobutanecarboxylic acid (5-tert-butyl-isoxazol-3-yl)-amide],agonistic activity
16,O=C(Nc1cc(C(F)(F)F)ccn1)C1(S(=O)(=O)c2ccc(Cl)cc2)CC1 [1-(4-Chloro-benzenesulfonyl)-cyclopropanecarboxylic acid (4-trifluoromethyl-pyridin-2-yl)-amide],agonistic activity

# The remaining lines, values ahead:
row,agonistic activity,Compound
1,agonistic activity,"COc1ccc(S(=O)(=O)C(C)(C)C(=O)Nc2c(C)c(-c3ccccc3)nn2C)cc1 [N-(1,4-dimethyl-3-phenyl-1H-pyrazol-5-yl)-2-[(4-methoxyphenyl)sulfonyl]-2-methylpropanamide]"
2,agonistic activity,Cc1ccc(S(=O)(=O)C(C)(C)C(=O)Nc2cc(C(C)(C)C)no2)cc1 [N-(3-tert-Butyl-isoxazol-5-yl)-2-methyl-2-(toluene-4-sulfonyl)-propionamide]
3,agonistic activity,CC(C)c1cc(NC(=O)C(C)(C)S(=O)(=O)c2ccc(Cl)cc2)n(C)n1 [2-(4-Chloro-benzenesulfonyl)-N-(5-isopropyl-2-methyl-2H-pyrazol-3-yl)-2-methyl-propionamide]
4,agonistic activity,"Cc1onc(NC(=O)C(C)(C)S(=O)(=O)c2ccc(Cl)cc2)c1C [2-(4-Chloro-benzenesulfonyl)-N-(4,5-dimethyl-isoxazol-3-yl)-2-methyl-propionamide]"
5,agonistic activity,CC(C)(C(=O)Nc1ncc(C#N)s1)S(=O)(=O)c1ccc(Cl)cc1 [2-(4-Chloro-benzenesulfonyl)-N-(5-cyano-thiazol-2-yl)-2-methyl-propionamide]
6,agonistic activity,CC(C)(C)c1cc(NC(=O)C(C)(C)S(=O)(=O)c2ccc(Cl)cc2)[nH]n1 [N-(5-tert-Butyl-2H-pyrazol-3-yl)-2-(4-chloro-benzenesulfonyl)-2-methyl-propionamide]
7,agonistic activity,"COc1ccc(S(=O)(=O)C(C)(C)C(=O)Nc2nc(C3CCCCC3)cs2)cc1 [N-(4-cyclohexyl-1,3-thiazol-2-yl)-2-[(4-methoxyphenyl)sulfonyl]-2-methylpropanamide]"
8,agonistic activity,CCc1sc(NC(=O)C(C)(C)S(=O)(=O)c2ccc(Cl)cc2F)nc1-c1ccccc1 [2-(4-Chloro-2-fluoro-benzenesulfonyl)-N-(5-ethyl-4-phenyl-thiazol-2-yl)-2-methyl-propionamide]
9,agonistic activity,"CCOC(=O)c1sc(NC(=O)C(C)(C)S(=O)(=O)c2ccc(Cl)cc2)nc1C(F)(F)F [ethyl 2-({2-[(4-chlorophenyl)sulfonyl]-2-methylpropanoyl}amino)-4-(trifluoromethyl)-1,3-thiazole-5-carboxylate]"
10,agonistic activity,Cn1c(NC(=O)C(C)(C)S(=O)(=O)c2ccc(Cl)cc2)nc2ccccc21 [2-(4-Chloro-benzenesulfonyl)-2-methyl-N-(1-methyl-1H-benzoimidazol-2-yl)-propionamide]
11,agonistic activity,Cc1ccc(S(=O)(=O)C(C)(C)C(=O)Nc2cccc(C(F)(F)F)n2)cc1 [2-Methyl-2-(toluene-4-sulfonyl)-N-(6-trifluoromethyl-pyridin-2-yl)-propionamide]
12,agonistic activity,CC(C)(C(=O)Nc1ncc(-c2ccc(F)cc2)s1)S(=O)(=O)c1ccc(F)cc1 [2-(4-Fluoro-benzenesulfonyl)-N-[5-(4-fluoro-phenyl)-thiazol-2-yl]-2-methyl-propionamide]
13,agonistic activity,"COc1ccc(S(=O)(=O)C(C)(C)C(=O)Nc2cc(CC(C)(C)C)no2)cc1 [N-[3-(2,2-dimethylpropyl)isoxazol-5-yl]-2-[(4-methoxyphenyl)sulfonyl]-2-methylpropanamide]"
14,agonistic activity,CC(C)(C)c1ccccc1NC(=O)C(C)(C)S(=O)(=O)c1ccc(Cl)cc1 [N-(2-tert-Butyl-phenyl)-2-(4-chloro-benzenesulfonyl)-2-methyl-propionamide]
15,agonistic activity,CC(C)(C(=O)Nc1ncc(C2CCOCC2)s1)S(=O)(=O)c1ccc(Cl)cc1 [2-(4-Chloro-benzenesulfonyl)-2-methyl-N-[5-(tetrahydro-pyran-4-yl)-thiazol-2-yl]-propionamide]
16,agonistic activity,CC(C)(C)c1cc(NC(=O)C2(S(=O)(=O)c3ccc(C(F)(F)F)cc3)CCOCC2)no1 [4-(4-Trifluoromethyl-benzenesulfonyl)-tetrahydro-pyran-4-carboxylic acid (5-tert-butyl-isoxazol-3-yl)-amide]
17,agonistic activity,"CC(C)(C(=O)Nc1cccc2ccccc12)S(=O)(=O)c1ccc(F)cc1F [2-(2,4-Difluoro-benzenesulfonyl)-2-methyl-N-naphthalen-1-yl-propionamide]"
18,agonistic activity,CC(C)(C)c1cc(NC(=O)C(C)(C)S(=O)(=O)c2ccccc2F)[nH]n1 [N-(5-tert-Butyl-2H-pyrazol-3-yl)-2-(2-fluoro-benzenesulfonyl)-2-methyl-propionamide]
19,agonistic activity,COc1ccc(S(=O)(=O)C(C)(C)C(=O)Nc2cc(C(C)(C)C)nn2C)cc1F [N-(5-tert-Butyl-2-methyl-2H-pyrazol-3-yl)-2-(3-fluoro-4-methoxy-benzenesulfonyl)-2-methyl-propionamide]
20,agonistic activity,Cc1ccc(NC(=O)C(C)(C)S(=O)(=O)c2ccc(Cl)cc2)nc1 [2-(4-Chloro-benzenesulfonyl)-2-methyl-N-(5-methyl-pyridin-2-yl)-propionamide]
21,agonistic activity,CC(C)(C)c1cc(NC(=O)C(C)(C)S(=O)(=O)c2cccc3cccnc23)no1 [N-(5-tert-Butyl-isoxazol-3-yl)-2-methyl-2-(quinoline-8-sulfonyl)-propionamide]
22,agonistic activity,Cn1nc(C(C)(C)C)cc1NC(=O)C(C)(C)S(=O)(=O)c1ccc(S(C)(=O)=O)cc1 [N-(3-tert-butyl-1-methyl-1H-pyrazol-5-yl)-2-methyl-2-{[4-(methylsulfonyl)phenyl]sulfonyl}propanamide]
